Assay results from publication PMC3685885 (Toxicology and applied pharmacology, 2013).
“And” between values parts separate entries of the source, which are not always exact repeats. Equal entries are not always repeated. Where two headings read alike, the source gives them in different places.

What was measured:
[1] = target: T1, human CB2Rs (Homo sapiens, UniProt P34972); assay: [35S]GTPγS binding; type: biochemical; settings: CHO-hCB2 membranes; for Intrinsic activity at CB2Rs, G-protein activation: agonists at 10 µM compared to CP-55,940; for CB2R Efficacy (EMAX) G-protein Activation: 10 µM, [35S]GTPγS binding, mean ± SEM
T1 sequence (P34972 whole entry): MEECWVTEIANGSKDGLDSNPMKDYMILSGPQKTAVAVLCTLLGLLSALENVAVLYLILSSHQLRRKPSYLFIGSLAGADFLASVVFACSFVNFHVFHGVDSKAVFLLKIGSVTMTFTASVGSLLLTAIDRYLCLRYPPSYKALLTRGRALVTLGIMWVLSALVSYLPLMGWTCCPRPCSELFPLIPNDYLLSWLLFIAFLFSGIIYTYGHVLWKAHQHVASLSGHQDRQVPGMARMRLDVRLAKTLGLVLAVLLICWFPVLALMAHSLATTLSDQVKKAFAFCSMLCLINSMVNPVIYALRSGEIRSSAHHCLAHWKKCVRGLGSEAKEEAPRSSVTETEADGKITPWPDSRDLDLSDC

[2] = target: human mu-opioid receptors (Homo sapiens, UniProt P35372); assay: [35S]GTPγS binding; type: biochemical; settings: 10 µM, membranes not expressing hCB2Rs
human mu-opioid receptors, sequence (P35372 whole entry): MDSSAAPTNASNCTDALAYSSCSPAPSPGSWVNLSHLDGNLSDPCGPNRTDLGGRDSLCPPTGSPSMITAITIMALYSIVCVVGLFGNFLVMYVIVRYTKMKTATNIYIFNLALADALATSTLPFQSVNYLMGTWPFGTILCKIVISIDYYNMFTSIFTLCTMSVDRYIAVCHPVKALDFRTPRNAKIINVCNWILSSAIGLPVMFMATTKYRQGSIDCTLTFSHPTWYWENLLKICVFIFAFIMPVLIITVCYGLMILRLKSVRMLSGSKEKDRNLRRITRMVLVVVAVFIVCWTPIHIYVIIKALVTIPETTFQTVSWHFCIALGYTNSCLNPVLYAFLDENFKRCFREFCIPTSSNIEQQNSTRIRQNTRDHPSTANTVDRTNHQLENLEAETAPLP

[3] = target: T1, human CB2Rs; assay: Inhibition of forskolin-stimulated adenylyl cyclase; type: cell-based; settings: for CB2R Efficacy (EMAX) AC-Inhibition: 10 µM; for Potency to regulate AC-activity relative to the parent compound: IC50 metabolite versus parent; for Intrinsic activity at CB2Rs, AC-inhibition: 10 µM compared to CP-55,940; for FRO for 50% AC-Inhibition: fractional CB2R occupancy at AC-IC50, FRO = [DRUG] / (Ki + [DRUG])
[4] = target: T1, human CB2Rs; assay: [3H]CP-55,940 competition receptor binding in CHO-hCB2 membranes
[5] = intact CHO-hCB2 cells, mean ± SEM
[6] = read-out: Potency for AC-Inhibition (IC50), intact CHO-hCB2 cells, 30 µM forskolin, mean ± SEM
[7] = read-out: CB2R Affinity (Ki), [3H]CP-55,940 0.2 nM, CHO-hCB2 membranes, mean ± SEM

Molecule	Intrinsic activity at CB2Rs, G-protein activation [1]	CB2R Efficacy (EMAX) AC-Inhibition [3, 5]	CB2R Efficacy (EMAX) G-protein Activation [1]	Ki [4, 7] [µM]	further results
COc1ccc(C(=O)c2c(C)n(CCN3CCOCC3)c3cc(I)ccc23)cc1 [AM-630, reference compound]	acted as inverse agonists				
CCCCCOc1c(OC)ccc2cc(C(=O)NCc3ccc4c(c3)OCO4)c(=O)[nH]c12 [JTE-907, reference compound]	acted as inverse agonists				
CCCCCn1cc(C(=O)c2cccc3ccccc23)c2ccccc21 [JWH-018, 1-pentyl-3-(1-naphthoyl)indole]		59.3 ± 4.0 (4) % Inhibition	60.3 ± 11.4 (7) fmole/mg		Effect on G-protein activity in CHO-hMOR membranes [2]: failed to significantly alter G-protein activity; IC50 [3]: 0.0036 ± 0.0022 µM; Ki [4]: 0.0056 ± 0.0024 µM
O=C(c1cccc2ccccc12)c1cn(CCCCCO)c2ccccc12 [JWH-018-M5]		53.5 ± 4.6 (4) % Inhibition	38.4 ± 8.5 (5) fmole/mg	0.0474 ± 0.0101	Potency to regulate AC-activity relative to the parent compound [3]: ~5 fold; Intrinsic activity at CB2Rs, AC-inhibition ([3]; intact CHO-hCB2 cells): partial CB2R agonists; IC50 [3, 6]: 0.0177 ± 0.0055 µM
O=C(O)CCCCn1cc(C(=O)c2cccc3ccccc23)c2ccccc21 [JWH-018-M6]				> 10	CB2R affinity ([4]; CHO-hCB2 membranes): lack affinity for CB2Rs
CCCCn1cc(C(=O)c2cccc3ccccc23)c2ccccc21 [JWH-073, 1-butyl-3-(1-naphthoyl)indole]		62.6 ± 2.7 (3) % Inhibition	40.1 ± 4.2 (3) fmole/mg		Effect on G-protein activity in CHO-hMOR membranes [2]: failed to significantly alter G-protein activity; IC50 [3]: 0.0169 ± 0.0019 µM; FRO for 50% AC-Inhibition [3]: 62.5% and 62.5 ± 3.0 (5) %; Intrinsic activity at CB2Rs, AC-inhibition ([3]; intact CHO-hCB2 cells): full agonists
O=C(c1cccc2ccccc12)c1cn(CCCCO)c2ccccc12 [JWH-073-M5]		54.2 ± 5.9 (4) % Inhibition	31.0 ± 1.0 (3) fmole/mg	0.096 ± 0.0071	Potency to regulate AC-activity relative to the parent compound [3]: equipotent; FRO for 50% AC-Inhibition [3]: 12.1% and 12.1 ± 1.6 (3) %; IC50 [3, 6]: 0.0133 ± 0.002 µM
O=C(O)CCCn1cc(C(=O)c2cccc3ccccc23)c2ccccc21 [JWH-073-M6]				> 10	CB2R affinity ([4]; CHO-hCB2 membranes): lack affinity for CB2Rs
SR-144528 [reference compound]	acted as inverse agonists				
